Several values for one entry are separate records, joined by “and”; a condition that tells them apart may be missing. Equal values may be shown once.
Experiments:
Format in all cases: cell-based
[1] = target: panel of 320 non-olfactory GPCRs (Homo sapiens, UniProt Q02643)
[2] = target: panel of 320 non-olfactory GPCRs (Homo sapiens, UniProt Q8TDV5)
[3] = target: panel of 320 non-olfactory GPCRs (Homo sapiens, UniProt Q8TDU6)
[4] = target: panel of 320 non-olfactory GPCRs (Homo sapiens, UniProt P47900)
Sequence of panel of 320 non-olfactory GPCRs (Homo sapiens, UniProt P47900) (P47900 whole entry): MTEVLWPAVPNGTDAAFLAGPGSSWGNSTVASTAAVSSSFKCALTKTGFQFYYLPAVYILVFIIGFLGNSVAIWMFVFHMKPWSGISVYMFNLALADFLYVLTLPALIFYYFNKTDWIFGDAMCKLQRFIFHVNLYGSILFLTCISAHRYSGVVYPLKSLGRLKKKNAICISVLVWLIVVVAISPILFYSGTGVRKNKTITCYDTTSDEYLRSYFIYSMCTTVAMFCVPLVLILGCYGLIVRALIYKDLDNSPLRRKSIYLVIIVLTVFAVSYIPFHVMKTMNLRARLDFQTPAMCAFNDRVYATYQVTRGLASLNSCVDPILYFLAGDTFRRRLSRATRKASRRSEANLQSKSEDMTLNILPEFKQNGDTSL

[5] = target: panel of 320 non-olfactory GPCRs (Homo sapiens, UniProt Q5NUL3)
Sequence of panel of 320 non-olfactory GPCRs (Homo sapiens, UniProt Q5NUL3) (Q5NUL3 whole entry): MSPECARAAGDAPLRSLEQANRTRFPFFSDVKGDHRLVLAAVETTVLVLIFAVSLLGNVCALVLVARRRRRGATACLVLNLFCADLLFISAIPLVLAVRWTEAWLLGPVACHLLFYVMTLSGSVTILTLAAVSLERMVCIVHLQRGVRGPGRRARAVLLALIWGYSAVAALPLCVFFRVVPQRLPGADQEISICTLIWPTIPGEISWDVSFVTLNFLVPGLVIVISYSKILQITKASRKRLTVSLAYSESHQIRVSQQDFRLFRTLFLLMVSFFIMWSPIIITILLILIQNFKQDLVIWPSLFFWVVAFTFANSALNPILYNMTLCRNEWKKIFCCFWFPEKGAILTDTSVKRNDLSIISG

[6] = target: panel of 320 non-olfactory GPCRs (Homo sapiens, UniProt P34998)
Sequence of panel of 320 non-olfactory GPCRs (Homo sapiens, UniProt P34998) (P34998 24-415): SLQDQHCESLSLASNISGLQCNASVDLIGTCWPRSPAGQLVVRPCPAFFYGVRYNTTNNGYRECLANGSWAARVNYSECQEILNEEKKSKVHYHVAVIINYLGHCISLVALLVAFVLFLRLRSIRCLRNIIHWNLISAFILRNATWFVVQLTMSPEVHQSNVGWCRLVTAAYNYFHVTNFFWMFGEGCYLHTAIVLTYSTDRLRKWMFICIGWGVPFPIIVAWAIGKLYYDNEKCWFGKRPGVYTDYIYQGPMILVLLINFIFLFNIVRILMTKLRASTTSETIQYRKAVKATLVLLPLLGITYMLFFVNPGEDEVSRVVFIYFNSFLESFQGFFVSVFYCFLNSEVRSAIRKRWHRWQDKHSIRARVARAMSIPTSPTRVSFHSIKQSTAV

[7] = target: panel of 320 non-olfactory GPCRs (Homo sapiens, UniProt P41180)
Sequence of panel of 320 non-olfactory GPCRs (Homo sapiens, UniProt P41180) (P41180 20-1078): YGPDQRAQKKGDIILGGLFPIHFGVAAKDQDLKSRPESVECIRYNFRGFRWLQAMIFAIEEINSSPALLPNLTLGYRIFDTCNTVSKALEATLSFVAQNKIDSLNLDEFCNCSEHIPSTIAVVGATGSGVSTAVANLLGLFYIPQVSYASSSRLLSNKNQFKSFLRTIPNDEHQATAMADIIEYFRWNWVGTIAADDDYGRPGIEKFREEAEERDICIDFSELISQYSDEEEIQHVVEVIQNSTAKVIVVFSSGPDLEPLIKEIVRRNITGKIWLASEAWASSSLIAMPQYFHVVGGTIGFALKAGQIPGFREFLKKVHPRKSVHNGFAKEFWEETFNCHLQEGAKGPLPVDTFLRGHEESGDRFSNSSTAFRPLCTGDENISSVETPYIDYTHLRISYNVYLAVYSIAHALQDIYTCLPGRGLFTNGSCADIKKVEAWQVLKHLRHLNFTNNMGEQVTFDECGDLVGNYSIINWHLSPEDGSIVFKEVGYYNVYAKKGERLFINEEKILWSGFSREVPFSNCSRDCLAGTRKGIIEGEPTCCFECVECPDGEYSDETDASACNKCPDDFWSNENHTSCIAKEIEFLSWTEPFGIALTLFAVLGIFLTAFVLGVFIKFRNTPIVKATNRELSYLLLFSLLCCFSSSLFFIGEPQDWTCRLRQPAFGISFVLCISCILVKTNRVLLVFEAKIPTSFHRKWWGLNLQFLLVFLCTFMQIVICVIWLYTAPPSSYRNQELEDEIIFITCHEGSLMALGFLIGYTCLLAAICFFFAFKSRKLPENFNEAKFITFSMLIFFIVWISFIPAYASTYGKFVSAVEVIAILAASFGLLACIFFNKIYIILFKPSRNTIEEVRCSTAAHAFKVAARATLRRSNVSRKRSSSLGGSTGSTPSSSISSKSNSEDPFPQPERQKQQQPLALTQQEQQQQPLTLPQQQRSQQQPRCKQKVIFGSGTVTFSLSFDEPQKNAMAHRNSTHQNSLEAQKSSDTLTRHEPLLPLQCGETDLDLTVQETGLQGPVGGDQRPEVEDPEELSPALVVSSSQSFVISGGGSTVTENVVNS

[8] = target: panel of 320 non-olfactory GPCRs (Homo sapiens, UniProt O95665)
Sequence of panel of 320 non-olfactory GPCRs (Homo sapiens, UniProt O95665) (O95665 whole entry): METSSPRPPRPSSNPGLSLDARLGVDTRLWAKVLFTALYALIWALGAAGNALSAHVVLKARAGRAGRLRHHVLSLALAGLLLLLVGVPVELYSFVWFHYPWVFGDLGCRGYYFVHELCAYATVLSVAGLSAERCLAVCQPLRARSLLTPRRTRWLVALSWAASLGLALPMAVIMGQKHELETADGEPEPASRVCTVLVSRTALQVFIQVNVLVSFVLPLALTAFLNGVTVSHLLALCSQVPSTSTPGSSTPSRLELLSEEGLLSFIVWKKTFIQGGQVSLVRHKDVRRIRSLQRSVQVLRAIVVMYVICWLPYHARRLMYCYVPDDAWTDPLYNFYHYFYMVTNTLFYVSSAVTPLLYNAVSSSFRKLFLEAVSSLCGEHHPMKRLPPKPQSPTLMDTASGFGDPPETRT
Also: test concentration or dose not given here.

Sequence of panel of 320 non-olfactory GPCRs (Homo sapiens, UniProt Q8TDU6) (Q8TDU6 whole entry): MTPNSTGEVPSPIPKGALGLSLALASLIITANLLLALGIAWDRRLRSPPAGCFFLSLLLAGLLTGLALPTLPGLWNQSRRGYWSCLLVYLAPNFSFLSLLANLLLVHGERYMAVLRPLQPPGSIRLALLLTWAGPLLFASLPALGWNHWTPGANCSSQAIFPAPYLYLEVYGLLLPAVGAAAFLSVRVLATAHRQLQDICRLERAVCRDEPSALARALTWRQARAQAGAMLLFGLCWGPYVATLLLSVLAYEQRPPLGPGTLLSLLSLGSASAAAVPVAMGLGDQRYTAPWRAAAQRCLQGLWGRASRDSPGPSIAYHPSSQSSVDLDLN
Sequence of panel of 320 non-olfactory GPCRs (Homo sapiens, UniProt Q02643) (Q02643 23-423): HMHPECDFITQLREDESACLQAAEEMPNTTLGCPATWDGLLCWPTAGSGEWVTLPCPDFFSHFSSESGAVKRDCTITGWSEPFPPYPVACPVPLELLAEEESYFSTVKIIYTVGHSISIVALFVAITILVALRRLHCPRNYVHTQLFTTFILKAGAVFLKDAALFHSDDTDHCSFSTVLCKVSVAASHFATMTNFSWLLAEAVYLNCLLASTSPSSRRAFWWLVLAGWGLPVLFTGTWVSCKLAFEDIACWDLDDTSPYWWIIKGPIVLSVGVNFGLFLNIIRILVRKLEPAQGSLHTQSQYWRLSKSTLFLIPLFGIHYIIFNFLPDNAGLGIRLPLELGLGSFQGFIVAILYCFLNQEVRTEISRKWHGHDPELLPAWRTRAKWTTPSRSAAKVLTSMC
Sequence of panel of 320 non-olfactory GPCRs (Homo sapiens, UniProt Q8TDV5) (Q8TDV5 whole entry): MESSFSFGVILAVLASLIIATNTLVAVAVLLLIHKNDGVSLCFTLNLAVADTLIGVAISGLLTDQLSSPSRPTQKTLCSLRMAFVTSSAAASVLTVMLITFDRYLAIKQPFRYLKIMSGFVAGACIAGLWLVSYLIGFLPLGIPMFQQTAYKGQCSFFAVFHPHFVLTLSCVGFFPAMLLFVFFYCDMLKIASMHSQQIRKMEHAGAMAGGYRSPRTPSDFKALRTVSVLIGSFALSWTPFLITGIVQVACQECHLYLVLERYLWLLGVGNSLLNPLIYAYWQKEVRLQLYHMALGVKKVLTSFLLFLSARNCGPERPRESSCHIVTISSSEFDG

Compound | Fold of Basal RLU [1] | Fold of Basal RLU [2] | Fold of Basal RLU [3] | Fold of Basal RLU [4] | Fold of Basal RLU [5] | Fold of Basal RLU [6] | Fold of Basal RLU [7] | Fold of Basal RLU [8]
Cc1cc(C(=O)NC(C)(c2ccco2)c2ccco2)nn1-c1cccc(C(F)(F)F)c1 [‘4936] | 0.7 and 0.6 and 1 | 0.8 and 1.3 | 1.4 fold and 1.5 fold and 1.7 fold | 1.1 fold and 0.9 fold and 0.7 fold and 1 fold | 0.3 and 0.2 | – | – | –
COC(=O)[C@@](C)(NC(=O)c1cc(C)n(-c2cccc(C(F)(F)F)c2)n1)c1cccs1 [‘1350] | – | – | – | – | – | 0.7 and 0.9 | 0.4 and 0.7 and 0.8 | 1.2 and 1 and 0.7 and 0.8

From article PMC11882969 (Nature Communications, 2025)
